The text below walks through data of paper PMC6334005, “Ginsenosides Act As Positive Modulators of P2X4 Receptors” (Molecular Pharmacology, 2019).

Each structure is given as a SMILES string.

In assay [1] the target is T1, hP2X4 (Homo sapiens, UniProt Q99571).
T1 sequence (Q99571 1-388): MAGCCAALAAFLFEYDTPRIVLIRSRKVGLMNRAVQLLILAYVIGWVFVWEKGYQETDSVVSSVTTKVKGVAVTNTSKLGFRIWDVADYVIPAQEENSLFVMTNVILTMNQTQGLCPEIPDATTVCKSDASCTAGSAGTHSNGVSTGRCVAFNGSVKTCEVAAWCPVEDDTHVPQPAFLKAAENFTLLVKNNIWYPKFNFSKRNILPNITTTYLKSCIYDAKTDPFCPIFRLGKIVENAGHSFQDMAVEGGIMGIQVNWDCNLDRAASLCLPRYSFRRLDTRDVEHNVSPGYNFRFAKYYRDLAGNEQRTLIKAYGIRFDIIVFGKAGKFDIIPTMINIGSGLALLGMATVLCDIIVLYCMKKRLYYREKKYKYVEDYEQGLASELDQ
The experiment in a line: cell-based. Further details: gene P2RX4.

Assay [2] addresses T1, hP2X4. Kind of assay: YOPRO-1 dye uptake, potentiation of ATP response. In kind it is cell-based. Set-up: gene P2RX4; full-length, C-terminal Glu-Glu tag, pcDNA3, stably expressed in HEK-293 cells; homotrimer.

The compound `Nc1ncnc2c1ncn2[C@@H]1O[C@H](COP(=O)(O)OP(=O)(O)OP(=O)(O)O)[C@@H](O)[C@H]1O` [ATP] gave a concentration for a half-maximal effect (EC50) in assay [1] of 1.92 µM. For `CC(C)=CCC[C@](C)(O[C@@H]1O[C@H](CO)[C@@H](O)[C@H](O)[C@H]1O)[C@H]1CC[C@]2(C)[C@@H]1[C@H](O)C[C@@H]1[C@@]3(C)CC[C@H](O)C(C)(C)[C@@H]3CC[C@]12C` [CK], in assay [2], the EC50 is 8.5 µM. Same read-out and setting: to `CC(C)=CCC[C@](C)(O[C@@H]1O[C@H](CO[C@@H]2O[C@H](CO)[C@@H](O)[C@H](O)[C@H]2O)[C@@H](O)[C@H](O)[C@H]1O)[C@H]1CC[C@]2(C)[C@@H]1[C@H](O)C[C@@H]1[C@@]3(C)CC[C@H](O[C@@H]4O[C@H](CO)[C@@H](O)[C@H](O)[C@H]4O[C@@H]4O[C@H](CO)[C@@H](O)[C@H](O)[C@H]4O)C(C)(C)[C@@H]3CC[C@]12C` [Rb1] belongs 10.5 µM; to `CC(C)=CCC[C@](C)(O[C@@H]1O[C@H](CO)[C@@H](O)[C@H](O)[C@H]1O)[C@H]1CC[C@]2(C)[C@@H]1[C@H](O)C[C@@H]1[C@@]3(C)CC[C@H](O[C@@H]4O[C@H](CO)[C@@H](O)[C@H](O)[C@H]4O[C@@H]4O[C@H](CO)[C@@H](O)[C@H](O)[C@H]4O)C(C)(C)[C@@H]3CC[C@]12C` [Rd], 7.5 µM.

In general, EC50 refers to the concentration giving half of the maximal effect.
